What was measured:
[1] = molecular target: T1, HER2 (Homo sapiens, UniProt P04626); assay: Suppression of receptor tyrosine-phosphorylation in human breast cancer cells BT-474; assay type: cell-based; conditions: BT-474 cells, 2 hours with test compound, anti-phosphotyrosine antibody blot; read-out: Inhibition of intracellular HER2 phosphorylation BT-474 (IC50: μM)
T1 construct: Taking as 100% the amount of phosphorylation of the HER2 tyrosine in control group; endogenous in cells; host or cells: BT-474 human breast cancer cells
Experimental: A suspension of human breast cancer cell BT-474 (500 μl (300,000 cells)) were sown into a 24-well plate, and cultured at 37° C. in the presence of 5% carbon dioxide. On the following day, 250 μl of a solution of the test compound, which was previously 4-fold diluted, was added. After 2 hours, the extraction was added to stop the reaction and the protein was extracted. This protein was subjected to protein electrophoresis to separate and transferred to a nylon filter. This filter was reacted with an anti-phosphotyrosine antibody; the reaction product was luminated. The amount of film photosensitization was determined using an image analyzer. Taking as 100% the amount of phosphorylation of the HER2 tyrosine in control group, the ratio of the amount of phosphorylation of the HER2 tyrosine in each group receiving a solution of the test compound at each concentration was determined, and the test compound concentration required to achieve 50% suppression by the test compound of the amount of phosphorylation of HER2 tyrosine (IC50 value) was calculated.

[2] = test system: human breast cancer cell BT-474; assay: Inhibitory action on breast cancer cell BT-474 proliferation in vitro (SRB); assay type: cell-based; conditions: 120 h, BT-474 cells, cultured for 5 days, SRB staining, read-out: Cell growth inhibition BT-474 (IC50: μM)
Experimental: A suspension of human breast cancer cell BT-474 (100 μl (6,000 cells)) were sown to a 96-well microplate and cultured at 37° C. in the presence of 5% carbon dioxide. On the following day, 100 μl of a solution of each test compound, which was previously diluted 2-fold, was added, and the cells were cultured for 5 days. After the culture medium containing the test compound was removed, the cells were washed and fixed with 50% trichloroacetic acid, after which a 0.4% (w/v) SRB solution (dissolved in 1% acetic acid) was added to stain the cells (Skehan et al., Journal of the National Cancer Institute, Vol. 82, pp. 1107-1112, 1990). After the pigment solution was removed and the plate was washed with a 1% acetic acid solution, 100 μl of an extract (10 mM Tris solution) was added to dissolve the pigment; absorbance was measured at an absorption wavelength of 550 nm to quantify the amount of cells as protein content. Taking as 100% the absorbance for the control group, which received no test compound solution, the ratio of the absorbance for each treatment group was determined, and the compound concentration required to achieve 50% suppression of the residual cell content relative to the control (IC50 value) was calculated.

T1 sequence (P04626 23-1255): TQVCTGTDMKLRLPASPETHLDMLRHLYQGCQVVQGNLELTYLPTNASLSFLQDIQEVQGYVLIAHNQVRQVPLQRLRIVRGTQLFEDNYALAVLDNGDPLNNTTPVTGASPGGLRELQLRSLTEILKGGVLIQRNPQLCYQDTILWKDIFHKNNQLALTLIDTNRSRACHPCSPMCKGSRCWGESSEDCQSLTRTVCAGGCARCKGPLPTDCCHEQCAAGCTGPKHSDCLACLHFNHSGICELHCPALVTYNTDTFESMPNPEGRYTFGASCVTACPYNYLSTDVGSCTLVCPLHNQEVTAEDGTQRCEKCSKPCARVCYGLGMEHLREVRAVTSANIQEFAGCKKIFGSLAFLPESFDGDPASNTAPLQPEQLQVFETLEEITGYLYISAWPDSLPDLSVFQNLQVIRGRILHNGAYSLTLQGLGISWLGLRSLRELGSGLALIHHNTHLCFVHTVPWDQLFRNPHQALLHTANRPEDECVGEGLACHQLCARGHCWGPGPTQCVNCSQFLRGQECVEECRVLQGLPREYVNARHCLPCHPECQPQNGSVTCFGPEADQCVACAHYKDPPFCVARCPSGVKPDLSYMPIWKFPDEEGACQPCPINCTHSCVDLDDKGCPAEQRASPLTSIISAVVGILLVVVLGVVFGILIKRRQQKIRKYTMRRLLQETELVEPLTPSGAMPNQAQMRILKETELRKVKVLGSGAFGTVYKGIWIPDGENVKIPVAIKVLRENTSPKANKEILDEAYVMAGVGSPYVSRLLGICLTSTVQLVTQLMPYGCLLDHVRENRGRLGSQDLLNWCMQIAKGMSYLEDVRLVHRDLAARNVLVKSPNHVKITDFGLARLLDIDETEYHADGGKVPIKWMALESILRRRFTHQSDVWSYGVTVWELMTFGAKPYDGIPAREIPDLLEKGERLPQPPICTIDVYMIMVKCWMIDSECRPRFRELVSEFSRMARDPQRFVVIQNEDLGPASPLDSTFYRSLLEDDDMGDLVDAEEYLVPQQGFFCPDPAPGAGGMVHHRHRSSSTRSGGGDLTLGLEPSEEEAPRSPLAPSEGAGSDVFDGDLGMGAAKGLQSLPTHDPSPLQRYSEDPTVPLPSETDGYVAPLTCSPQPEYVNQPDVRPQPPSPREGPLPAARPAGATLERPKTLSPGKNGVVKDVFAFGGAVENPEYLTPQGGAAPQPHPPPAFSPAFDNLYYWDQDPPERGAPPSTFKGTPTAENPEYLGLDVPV

Structure (SMILES)	IC50 [1] [µM]	IC50 [2] [µM]
CC(C)NC(=O)OCCc1nccn1CCCCc1ccc(OCc2coc(/C=C/c3ccc(C(F)(F)F)cc3)n2)cc1 [Example 1, 2-[1-[4-[4-[[2-[(E)-2-[4-(trifluoromethyl)phenyl]ethenyl]-1,3-oxazol-4-yl]methoxy]phenyl]butyl]-1H-imidazol-2-yl]ethyl isopropylcarbamate]	< 4	< 0.05
O=C(CCc1nccn1CCCCc1ccc(OCc2coc(/C=C/c3ccc(C(F)(F)F)cc3)n2)cc1)N1CCCC1 [Example 6, 1-{3-[1-(4-{4-[(2-{(E)-2-[4-(trifluoromethyl)phenyl]ethenyl}-1,3-oxazol-4-yl)methoxy]phenyl}butyl)-1H-imidazol-2-yl]propanoyl}pyrrolidine]	< 4	< 0.05
O=C(OCCc1nccn1CCCCc1ccc(OCc2coc(/C=C/c3ccc(C(F)(F)F)cc3)n2)cc1)N1CCCC1 [Example 3, 2-[1-[4-[4-[[2-[(E)-2-[4-(trifluoromethyl)phenyl]ethenyl]-1,3-oxazol-4-yl]methoxy]phenyl]butyl]-1H-imidazol-2-yl]ethyl 1-pyrroridinecarboxylate]	< 4	< 0.05
CS(=O)(=O)CCc1nccn1CCCCc1ccc(OCc2coc(/C=C/c3ccc(C(F)(F)F)cc3)n2)cc1 [Example 17, 4-[[4-[4-[2-[2-(methylsulfonyl)ethyl]-1H-imidazol-1-yl]butyl]phenoxy]methyl]-2-[(E)-2-[4-(trifluoromethyl)phenyl]ethenyl]-1,3-oxazole]	< 4	
CN(C)C(=O)CCc1nccn1CCCCc1ccc(OCc2coc(/C=C/c3ccc(C(F)(F)F)cc3)n2)cc1 [Example 5, N,N-dimethyl-3-[1-[4-[4-[[2-[(E)-2-[4-(trifluoromethyl)phenyl]ethenyl]-1,3-oxazol-4-yl]methoxy]phenyl]butyl]-1H-imidazol-2-yl]propanamide]	< 4	< 0.05
CS(=O)(=O)CCc1nccn1CCCCc1ccc(OCc2coc(/C=C/c3ccc(F)cc3)n2)cc1 [Example 11, 2-[(E)-2-(4-fluorophenyl)ethenyl]-4-[[4-[4-[2-[2-(methylsulfonyl)ethyl]-1H-imidazol-1-yl]butyl]phenoxy]methyl]-1,3-oxazole]	< 4	
CS(=O)(=O)NCCc1nccn1CCCCc1ccc(OCc2coc(/C=C/c3ccc(C(F)(F)F)cc3)n2)cc1 [Example 16, N-[2-[1-[4-[4-[[2-[(E)-2-[4-(trifluoromethyl)phenyl]ethenyl]-1,3-oxazol-4-yl]methoxy]phenyl]butyl]-1H-imidazol-2-yl]ethyl]methanesulfonamide]	< 4	0.15

From US6984653B2, “Heterocyclic compounds, oxazole derivatives, process for preparation of the same and use thereof” (Takeda Pharmaceutical Company Limited, priority 2001, dated 2006)
